From US8710038B2, “Pyrazole kinase modulators and methods of use” (Exelixis, Inc., priority 2004, dated 2014)

How the values were obtained:
EGFR = EGFR (Homo sapiens, UniProt P00533); test: EGFR kinase inhibition assay; assay type: biochemical
Experimental: (§1) Kinase activity and compound inhibition are investigated using one or more of the three assay formats described below. The ATP concentrations for each assay are selected to be close to the Michaelis-Menten constant (KM) for each individual kinase. Dose-response experiments are performed at 10 different inhibitor concentrations in a 384-well plate format. The data are fitted to four-parameter equation (2) below; where Y is the observed signal, X is the inhibitor concentration, Min is the background signal in the absence of enzyme (0% enzyme activity), Max is the signal in the absence of inhibitor (100% enzyme activity), IC50 is the inhibitor concentration at 50% enzyme inhibition and H represents the empirical Hill's slope to measure the cooperativity. Typically H is close to unity. Y=Min+(Max−Min)/(1+(X/IC50)^H) Equation (2) ^33P Phosphoryl Transfer Assay: […]
(§2) Greiner 384-well white, clear bottom, high binding plates are coated with 2 μg/well of protein or peptide substrate in a 50 μL volume overnight at ambient temperature. The coating buffer typically contains 40 μg/mL substrate, 22.5 mM Na2CO3, 27.5 mM NaHCO3, 150 mM NaCl and 3 mM NaN3. The coating solution is aspirated and the plates are washed once with 50 μL of assay buffer and padded dry. Subsequently compounds and enzymes are mixed with γ^33P-ATP (3.3 μCi/nmol) in a total volume of 20 uL in suitable assay buffers. The mixture is incubated at ambient temperature for 1.5-2.5 hrs and terminated by aspiration using a Molecular Devices EMBLA 96-head plate washer. The plates are subsequently washed 6-12 times with PBST or TBS buffer. Scintillation fluid (50 μl/well) is then added, the plates are sealed and activity assessed by liquid scintillation spectrometry using a Perkin Elmer MicroBeta TriLux.
(§3) In the LCCA assays, kinase activity is measured as the percent ATP consumed following the kinase reaction using luciferase-luciferin-coupled chemiluminescence. Greiner 384-well white, clear bottom, medium-binding plates are used for LCCA. Briefly, the kinase reaction is initiated by mixing compounds, ATP and kinase in a 20 uL volume. The mixture is incubated at ambient temperature for 2-4 hrs. At the end of the kinase reaction, a 20 uL luciferase-luciferin mix is added and the chemiluminescent signal is read using a Wallac Victor^2 reader. The luciferase-luciferin mix consists of 50 mM HEPES, pH 7.8, 8.5 ug/mL oxalic acid (pH 7.8), 5 (or 50) mM DTT, 0.4% Triton X-100, 0.25 mg/mL coenzyme A, 63 uM AMP, 28 ug/mL luciferin and 40,000 units of light/mL luciferase. For the LCCA assays, total ATP consumption has been standardized to 25-45% and the IC50 values correlates well with those determined by radiometric assays.
(§4) AlphaScreen technology is a proximity assay which utilizes the increase in fluorescent signal occurring when donor and acceptor beads are close in proximity. Biotinylated poly(Glu,Tyr) 4:1 is used as the kinase substrate, in conjunction with streptavidin-coated donor beads and anti-phosphortyrosine antibody PY100-coated acceptor beads. Upon phosphorylation, the peptide substrate can bind to both donor and acceptor beads giving rise to an increase in fluorescence. Compounds, ATP, biotinylated poly(Glu, Tyr) and kinases are mixed in a volume of 20 uL for 1 hr at ambient temperature using Greiner 384-well white clear bottom medium binding plates. Following incubation a 10 uL solution containing […] AlphaScreen beads, 75 mM Hepes, pH 7.4, 300 mM NaCl, 120 mM EDTA, 0.3% BSA and 0.03% Tween-20 is added to each well. After 2-16 hr incubation of the beads, plates are read in a Perkin Elmer AlphaQuest reader. The IC50 values correlates well with those of radiometric assays.

EphB4 = biological target: T1, EphB4 (Homo sapiens, UniProt P54760); test: EphB4 kinase inhibition assay; assay type: biochemical
T1 sequence (P54760 16-987): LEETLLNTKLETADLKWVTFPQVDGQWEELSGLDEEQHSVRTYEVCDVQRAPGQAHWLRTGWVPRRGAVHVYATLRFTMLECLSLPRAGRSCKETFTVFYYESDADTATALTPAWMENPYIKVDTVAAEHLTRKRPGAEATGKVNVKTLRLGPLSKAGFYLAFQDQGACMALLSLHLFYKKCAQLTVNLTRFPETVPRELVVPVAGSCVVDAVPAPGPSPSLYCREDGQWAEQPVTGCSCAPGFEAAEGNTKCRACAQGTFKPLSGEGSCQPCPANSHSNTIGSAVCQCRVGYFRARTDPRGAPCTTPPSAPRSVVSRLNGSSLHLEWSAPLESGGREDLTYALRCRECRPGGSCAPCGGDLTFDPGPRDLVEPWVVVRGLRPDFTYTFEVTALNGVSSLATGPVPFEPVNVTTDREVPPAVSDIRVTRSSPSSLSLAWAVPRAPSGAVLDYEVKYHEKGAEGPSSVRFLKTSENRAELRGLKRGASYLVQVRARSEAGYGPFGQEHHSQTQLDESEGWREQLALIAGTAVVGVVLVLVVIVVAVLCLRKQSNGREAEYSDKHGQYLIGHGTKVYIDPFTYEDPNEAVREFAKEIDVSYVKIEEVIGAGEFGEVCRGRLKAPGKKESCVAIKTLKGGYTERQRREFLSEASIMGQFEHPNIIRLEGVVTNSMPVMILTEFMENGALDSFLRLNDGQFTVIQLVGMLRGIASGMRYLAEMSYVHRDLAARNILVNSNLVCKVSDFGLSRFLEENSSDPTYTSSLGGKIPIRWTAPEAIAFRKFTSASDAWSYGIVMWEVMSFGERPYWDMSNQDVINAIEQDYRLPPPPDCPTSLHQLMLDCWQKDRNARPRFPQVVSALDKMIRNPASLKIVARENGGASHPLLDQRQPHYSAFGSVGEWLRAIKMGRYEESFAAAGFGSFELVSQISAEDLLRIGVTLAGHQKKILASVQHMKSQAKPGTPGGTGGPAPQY
Experimental: as §1, §2, §3, §4

flt-3 = biological target: T2, flt-3 (Homo sapiens, UniProt P36888); test: flt-3 Luciferase-Coupled Chemiluminescent Kinase assay (LCCA); assay type: biochemical
T2 construct: baculovirus expressed human Flt-3 kinase domain R571-S993
T2 sequence (P36888 571-993): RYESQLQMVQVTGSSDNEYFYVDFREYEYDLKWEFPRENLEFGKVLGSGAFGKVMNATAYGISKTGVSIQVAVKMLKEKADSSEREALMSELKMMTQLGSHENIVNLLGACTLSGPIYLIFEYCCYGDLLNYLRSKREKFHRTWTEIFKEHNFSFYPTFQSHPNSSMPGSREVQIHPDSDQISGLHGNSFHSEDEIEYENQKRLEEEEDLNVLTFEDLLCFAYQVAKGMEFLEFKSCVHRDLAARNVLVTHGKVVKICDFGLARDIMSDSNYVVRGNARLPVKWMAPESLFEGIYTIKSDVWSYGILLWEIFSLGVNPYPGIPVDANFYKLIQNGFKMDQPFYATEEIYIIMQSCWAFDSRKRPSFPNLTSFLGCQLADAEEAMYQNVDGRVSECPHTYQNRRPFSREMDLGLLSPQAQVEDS
How it was run: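 Baculovirus-expressed human Flt-3 kinase domain (R571-S993, 5 nM) was reacted with 5 μM ATP and 3 μM poly-EY in Tris pH 7.5 buffer with MgCl2/MnCl2 for 3 h at ambient temperature. Remaining ATP was read by luciferase-luciferin chemiluminescence, with ATP consumption standardized to 25-45%, for IC50.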

c-Kit = c-Kit (Homo sapiens, UniProt P10721); test: c-Kit biochemical assay (AlphaScreen)
How it was run: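 Kinase, compound, ATP and biotinylated poly(Glu,Tyr) 4:1 reacted 1 hr at ambient temperature; quenched with EDTA buffer (pH 7.4) containing streptavidin donor and anti-phosphotyrosine PY100 acceptor beads, incubated 16 hr, then AlphaScreen signal read to give IC50.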

c-Kit, sequence (P10721 26-976): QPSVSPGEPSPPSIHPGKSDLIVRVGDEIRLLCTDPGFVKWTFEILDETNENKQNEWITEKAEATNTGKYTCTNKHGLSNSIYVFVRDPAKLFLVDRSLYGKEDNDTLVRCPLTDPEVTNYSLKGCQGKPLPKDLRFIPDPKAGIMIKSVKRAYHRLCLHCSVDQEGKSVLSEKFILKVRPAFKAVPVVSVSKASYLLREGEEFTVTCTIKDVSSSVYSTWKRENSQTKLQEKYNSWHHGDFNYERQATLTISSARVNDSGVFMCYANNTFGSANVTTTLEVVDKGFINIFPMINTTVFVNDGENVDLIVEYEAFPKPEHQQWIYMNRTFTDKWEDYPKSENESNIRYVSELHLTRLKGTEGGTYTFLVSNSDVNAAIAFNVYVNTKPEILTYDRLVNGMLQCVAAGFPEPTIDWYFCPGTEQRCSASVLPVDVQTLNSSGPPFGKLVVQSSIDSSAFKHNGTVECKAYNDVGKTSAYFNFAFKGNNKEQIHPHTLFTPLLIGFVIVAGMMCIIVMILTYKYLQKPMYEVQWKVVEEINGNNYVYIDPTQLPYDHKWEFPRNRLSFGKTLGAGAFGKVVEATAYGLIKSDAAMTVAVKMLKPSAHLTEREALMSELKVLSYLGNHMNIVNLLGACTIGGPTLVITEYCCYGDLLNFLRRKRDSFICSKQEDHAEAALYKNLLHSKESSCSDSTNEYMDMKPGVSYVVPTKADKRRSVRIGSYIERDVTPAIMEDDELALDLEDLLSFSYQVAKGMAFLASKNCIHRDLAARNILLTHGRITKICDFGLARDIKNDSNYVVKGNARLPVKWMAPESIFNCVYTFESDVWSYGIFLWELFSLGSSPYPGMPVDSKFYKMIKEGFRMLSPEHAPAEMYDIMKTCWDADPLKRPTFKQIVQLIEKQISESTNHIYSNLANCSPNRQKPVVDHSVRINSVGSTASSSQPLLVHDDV
EGFR, sequence (P00533 25-1210, species assumed): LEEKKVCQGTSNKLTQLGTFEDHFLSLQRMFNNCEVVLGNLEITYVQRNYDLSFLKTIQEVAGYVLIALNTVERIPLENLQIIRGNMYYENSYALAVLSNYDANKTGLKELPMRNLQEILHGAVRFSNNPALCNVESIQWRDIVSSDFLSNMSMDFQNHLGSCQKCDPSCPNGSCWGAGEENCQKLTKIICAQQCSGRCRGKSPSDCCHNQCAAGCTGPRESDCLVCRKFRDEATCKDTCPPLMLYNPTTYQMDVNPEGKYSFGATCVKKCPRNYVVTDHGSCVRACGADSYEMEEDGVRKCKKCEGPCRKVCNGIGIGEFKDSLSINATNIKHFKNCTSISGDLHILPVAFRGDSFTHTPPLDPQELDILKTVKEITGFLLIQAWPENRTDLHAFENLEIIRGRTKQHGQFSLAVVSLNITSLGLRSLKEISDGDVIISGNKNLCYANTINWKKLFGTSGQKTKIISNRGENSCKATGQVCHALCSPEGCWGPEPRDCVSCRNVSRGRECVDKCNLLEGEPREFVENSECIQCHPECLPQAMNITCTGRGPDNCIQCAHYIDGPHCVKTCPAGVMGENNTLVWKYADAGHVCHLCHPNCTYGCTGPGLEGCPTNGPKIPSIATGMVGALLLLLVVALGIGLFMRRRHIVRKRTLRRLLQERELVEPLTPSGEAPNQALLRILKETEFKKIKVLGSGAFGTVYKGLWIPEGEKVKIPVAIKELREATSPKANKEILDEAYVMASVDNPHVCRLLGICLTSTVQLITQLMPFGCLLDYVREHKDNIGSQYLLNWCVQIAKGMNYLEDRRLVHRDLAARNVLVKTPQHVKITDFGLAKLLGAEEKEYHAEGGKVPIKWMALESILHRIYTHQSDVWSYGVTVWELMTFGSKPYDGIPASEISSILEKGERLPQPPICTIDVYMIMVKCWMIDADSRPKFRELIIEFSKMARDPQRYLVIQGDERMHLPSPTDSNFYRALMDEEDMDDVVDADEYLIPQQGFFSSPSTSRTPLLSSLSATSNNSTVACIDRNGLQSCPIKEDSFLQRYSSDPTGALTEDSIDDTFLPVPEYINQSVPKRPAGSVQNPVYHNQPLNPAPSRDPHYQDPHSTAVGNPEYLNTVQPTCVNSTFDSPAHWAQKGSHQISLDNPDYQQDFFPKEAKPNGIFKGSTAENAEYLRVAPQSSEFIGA

Compound	IC50 (EGFR) [nM]	IC50 (EphB4) [nM]	IC50 (flt-3) [nM]	IC50 (c-Kit) [nM]
CN1CCN(c2ccc3[nH]c(-c4cc(-c5ccc(NC(=O)Nc6cccc(F)c6)cc5)[nH]n4)nc3c2)CC1 [Entry 22, N-(3-fluorophenyl)-N′-(4-{3-[5-(4-methylpiperazin-1-yl)-1H-benzimidazol-2-yl]-1H-pyrazol-5-yl}phenyl)urea]	> 5000	> 5000	< 50	< 50
CCN1CCN(c2ccc3nc(-c4cc(-c5ccc(NC(=O)Nc6ccc(F)cc6F)cc5)[nH]n4)[nH]c3c2)CC1 [Entry 29, N-(2,4-difluorophenyl)-N′-(4-{3-[6-(4-ethylpiperazin-1-yl)-1H-benzimidazol-2-yl]-1H-pyrazol-5-yl}phenyl)urea]	> 5000	> 5000	< 50	< 50
O=C(Nc1ccc(-c2cc(-c3nc4ccccc4[nH]3)n[nH]2)cc1)Nc1ccc(Cl)c(C(F)(F)F)c1 [Entry 30, N-{4-[3-(1H-benzimidazol-2-yl)-1H-pyrazol-5-yl]phenyl}-N′-[4-chloro-3-(trifluoromethyl)phenyl]urea]	> 5000	> 5000	< 50	< 50
CN1CCN(c2ccc3[nH]c(-c4cc(-c5ccc(NC(=O)Nc6cc(C(F)(F)F)cc(C(F)(F)F)c6)cc5)[nH]n4)nc3c2)CC1 [Entry 34, N-[3,5-bis(trifluoromethyl)phenyl]-N′-(4-{3-[5-(4-methylpiperazin-1-yl)-1H-benzimidazol-2-yl]-1H-pyrazol-5-yl}phenyl)urea]	> 5000	500 to 5000	< 50	< 50
CN1CCN(c2ccc3[nH]c(-c4cc(-c5ccc(NC(=O)Nc6ccccc6F)cc5)[nH]n4)nc3c2)CC1 [Entry 35, N-(2-fluorophenyl)-N′-(4-{3-[5-(4-methylpiperazin-1-yl)-1H-benzimidazol-2-yl]-1H-pyrazol-5-yl}phenyl)urea]	> 5000	> 5000	< 50	< 50
Oc1ccc(/C=C/c2cc(/C=C/c3ccccc3)[nH]n2)cc1 [Entry 36, 4-((E)-2-{5-[(E)-2-phenylethenyl]-1H-pyrazol-3-yl}ethenyl)phenol]	> 5000	> 5000	< 50	< 50
COc1cc(/C=C/c2cc(/C=C/c3ccccc3)[nH]n2)ccc1O [Entry 37, 2-(methyloxy)-4-((E)-2-{5-[(E)-2-phenylethenyl]-1H-pyrazol-3-yl}ethenyl)phenol]	> 5000	500 to 5000	< 50	< 50
CN1CCN(c2ccc(-c3cc(-c4ccc(NC(=O)Nc5ccc(F)cc5F)cc4)[nH]n3)cc2)CC1 [Entry 41, N-(2,4-difluorophenyl)-N′-(4-{3-[4-(4-methylpiperazin-1-yl)phenyl]-1H-pyrazol-5-yl}phenyl)urea]	> 5000	> 5000	< 50	50 to 500

Second part, the molecule after the results:

IC50 (EGFR) [nM]	IC50 (EphB4) [nM]	IC50 (flt-3) [nM]	IC50 (c-Kit) [nM]	Compound
> 5000	> 5000	< 50	< 50	CN1CCN(c2ccc3[nH]c(-c4cc(-c5ccc(NC(=O)Nc6ccc(F)cc6)cc5)[nH]n4)nc3c2)CC1 [Entry 23, N-(4-fluorophenyl)-N′-(4-{3-[5-(4-methylpiperazin-1-yl)-1H-benzimidazol-2-yl]-1H-pyrazol-5-yl}phenyl)urea]
> 5000	> 5000	< 50	< 50	CN1CCN(c2ccc3[nH]c(-c4cc(-c5ccc(NC(=O)Nc6ccc(F)c(F)c6)cc5)[nH]n4)nc3c2)CC1 [Entry 25, N-(3,4-difluorophenyl)-N′-(4-{3-[5-(4-methylpiperazin-1-yl)-1H-benzimidazol-2-yl]-1H-pyrazol-5-yl}phenyl)urea]
> 5000	> 5000	< 50	< 50	O=C(Nc1ccc(-c2cc(-c3nc4ccccc4[nH]3)n[nH]2)cc1)Nc1cc(C(F)(F)F)ccc1F [Entry 31, N-{4-[3-(1H-benzimidazol-2-yl)-1H-pyrazol-5-yl]phenyl}-N′-[2-fluoro-5-(trifluoromethyl)phenyl]urea]
> 5000	> 5000	< 50	< 50	CN1CCN(c2ccc3[nH]c(-c4cc(-c5ccc(NC(=O)Nc6ccc(F)cc6F)cc5)[nH]n4)nc3c2)CC1 [Entry 32, N-(2,4-difluorophenyl)-N′-(4-{3-[5-(4-methylpiperazin-1-yl)-1H-benzimidazol-2-yl]-1H-pyrazol-5-yl}phenyl)urea]
> 5000	> 5000	< 50	50 to 500	CN1CCN(c2ccc3[nH]c(-c4cc(-c5ccc(NC(=O)Nc6ccccc6)cc5)[nH]n4)nc3c2)CC1 [Entry 39, N-(4-{3-[5-(4-methylpiperazin-1-yl)-1H-benzimidazol-2-yl]-1H-pyrazol-5-yl}phenyl)-N′-phenylurea]
